Literature values, collected in US20150246061A1, “VITAMIN D ANALOGUES FOR THE TREATMENT OF A NEUROLOGICAL DISORDER” (CELUS PHARMACEUTICALS, INC., priority 2012, published 2015).

Settings: adult humans, longer treatment periods

- daily dose up to which elocalcitol has been shown to be safe: ≤ 150 µg
SMILES: C=C1/C(=C\C=C2/CCC[C@]3(C)C([C@@H](C)C/C=C/C(O)(CC)CC)=CC[C@@H]23)C[C@@H](O)C[C@@H]1F [Elocalcitol, elocalcitol]
